Patent publication US5565561A, “Natural substance cyclamenol and chemical derivatives” (Bayer Aktiengesellschaft, priority 1992, dated 1996)

Tests used:
infarcted cardiac tissue = assay: Reduction of the infarct size in the rat infarct model; assay type: in vivo, Wistar rats; details: 1 mg/kg each before occlusion and before reperfusion, jugular vein infusion; average and standard deviation, 11 rats
Method: After a 5-minute post-operative recovery phase, the compound from Example 1 in a dose of 1 mg/kg dissolved in 100% DMSO or solvents was infused for 6 min into the catheterized jugular vein of the ventilated rats and the coronary artery was occluded for 30 min. At the 25 minute point of the occlusion, the second administration of the compound from Example 1 or solvent is carried out under the conditions described above. After the end of the infusion and occulsion phase, the ligature was opened and the heart was reperfused for 90 min.
For histological staining of the infarcted cardiac tissue, the heart was perfused ex vivo retrogressively with triphenyltetrazolium chloride (TTC, 1.5%) in 20 mM potassium phosphate buffer for 15 min and with 0.9% NaCl for 10 min at 37° C. and at a perfusion pressure of 100 mm Hg. The infarct sizes were calculated in percent by weight of infarcted to non-infarcted tissue and indicated in percent as average values and their standard deviations of 11 rats treated with the compound from Example 1 and of 11 treated with solvent.

[1] = system: Leucocyte adhesion in small venules; assay: Leucocyte adhesion in small venules of the hamster cheek pouch; assay type: in vivo; details: Mesocricetus auratus, iv, adhesion caused by the preparation, read-out: dose from which leucocyte adhesion is significantly reduced
Source text: (§1) 3. Leucocyte adhesion in small venules was investigated in the hamster cheek pouch (preparation according to Duling, MVR 5, 423-429, 1973). An increased adhesion is caused by the preparatory preparation of the cheek pouch. […] The determination of the myeloperoxidase activity as a direct measure of the accumulation of neutrophilic leucocytes gives increases of around 80-100% compared to the control.

[2] = system: myeloperoxidase activity (accumulation of neutrophilic leucocytes); assay: LTB4-superfused hamster cheek pouch, myeloperoxidase activity as measure of accumulation of neutrophilic leucocytes; assay type: in vivo; details: 1 mg/kg i.v.; cheek pouch superfused with LTB4 for 10 min
Source text: as §1

[3] = biological target: T1, Myeloperoxidase from human polymorphonuclear neutrophils (Homo sapiens, UniProt P05164); assay: Inhibition of myeloperoxidase activity (ortho-dianisidine/H2O2, absorbance at 490 nm); assay type: biochemical; details: pH 6.0, 30° C.
T1 construct: The latter were isolated from fresh venous whole blood; endogenous in cells; host or cells: human polymorphonuclear neutrophils isolated from fresh venous whole blood; lysed with cetyltrimethylammonium bromide, 40,000 g supernatant
Method: Myeloperoxidase from human polymorphonuclear neutrophils was used for the measurements. The latter were isolated from fresh venous whole blood according to the method of D. English and B. R. Andersen, Journal of Immunological Methods 5, (1974) 249-252.
10^7 cells were lysed at 0° C. for 10 min using 1 ml of 0.5% cetyltrimethylammonium bromide in 50 mmol/l sodium phosphate buffer pH 6.0, frozen and directly thawed again. This process was repeated twice. The suspension was then centrifuged at 40,000 g for 10 min. The supernatant was diluted with 50 mmol/l sodium phosphate buffer pH 6.0 according to its myeloperoxidase activity and used for the tests.
To carry out the tests, 10 μl of test sample are added to a dimethyl sulphoxide-containing solution (max. v/v 30%) with 30 μl of the myeloperoxidase solution prepared as described above=1-2.5 μg of protein, in a microtitre plate (Greiner) with a smooth bottom. The reaction is started by addition of a test mixture consisting of 250 μl of 50 mmol/l sodium phosphate buffer pH 6.0, 10 μl of 0.5×10^-3 mmol/l H2 O2 and 10 μl of 2.5×10^-2 mol/l ortho-dianisidine in dimethyl sulphoxide. The increase in the absorbance is measured at 490 nm in an Elisa reader at 30° C. 6 measurements are carried out at an interval of 2 min and the increase in absorbance per minute is calculated. A control which instead of a test sample contains only the corresponding amount of dimethyl sulphoxide is prepared as the 100% value and then the inhibition by the sample is calculated. All measurements are carried out as a triplicate determination.

T1 sequence (P05164 279-745 limits assumed): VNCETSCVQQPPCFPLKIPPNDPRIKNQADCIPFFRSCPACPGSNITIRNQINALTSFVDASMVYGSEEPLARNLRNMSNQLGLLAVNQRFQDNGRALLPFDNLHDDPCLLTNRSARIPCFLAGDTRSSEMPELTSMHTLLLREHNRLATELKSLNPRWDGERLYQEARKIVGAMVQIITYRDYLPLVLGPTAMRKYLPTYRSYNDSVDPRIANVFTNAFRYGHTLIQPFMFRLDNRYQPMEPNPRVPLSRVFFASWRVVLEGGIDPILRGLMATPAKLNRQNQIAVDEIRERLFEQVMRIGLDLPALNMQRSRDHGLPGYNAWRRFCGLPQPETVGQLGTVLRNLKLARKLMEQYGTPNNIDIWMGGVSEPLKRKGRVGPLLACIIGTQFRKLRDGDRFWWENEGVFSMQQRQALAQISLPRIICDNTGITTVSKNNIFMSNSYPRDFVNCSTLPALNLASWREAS
T1 sequence (P05164 165-278 limits assumed): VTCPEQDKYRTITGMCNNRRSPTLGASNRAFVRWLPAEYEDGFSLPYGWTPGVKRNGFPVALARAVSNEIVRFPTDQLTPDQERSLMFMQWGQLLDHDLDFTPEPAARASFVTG

CC1C=CC=CC=CC=CC(O)CC=CC=CC=CC(=O)NC1 (centres unmarked) [Example 1, Cyclamenol]
reduction of infarct size (infarcted cardiac tissue): 12.2±4.8% | reduction of infarct size (first value) (infarcted cardiac tissue): 19.0±6.0% | minimal effective dose [1]: ≥ 0.1 mg/kg | effect on the rise in MPO activity [2]: prevents the rise in the MPO activity | inhibition at 0.1 µM ([3]; 0.1 μmol/l): 12% | inhibition at 1 µM ([3]; 1 μmol/l): 28% | inhibition at 10 µM ([3]; 10 μmol/l): 45% | inhibition at 50 µM ([3]; 50 μmol/l): 60%
